System: MV-4-11 cells
Test: Gene expression microarray analysis (Affymetrix PrimeView) and GSEA
Assay type: cell-based, human
Parameters: RFU PODN (11730768_x_at) / Fold change /veh PODN (11730768_x_at) / RFU LINC00158 (11744669_a_at) / Fold change /veh LINC00158 (11744669_a_at) / RFU DUSP10 (11751237_a_at) / Fold change /veh DUSP10 (11751237_a_at) / RFU ID3 (11757404_x_at) / Fold change /veh ID3 (11757404_x_at) / RFU PLEKHG5 (11737974_s_at) / Fold change /veh PLEKHG5 (11737974_s_at) / RFU LRRC4B (11730491_at) / Fold change /veh LRRC4B (11730491_at) / RFU GIMAP4 (11747438_a_at) / Fold change /veh GIMAP4 (11747438_a_at) / RFU KRT8 (11758183_x_at) / Fold change /veh KRT8 (11758183_x_at) / RFU CNN1 (11734310_a_at) / Fold change /veh CNN1 (11734310_a_at) / RFU VPS37D (11726825_at) / Fold change /veh VPS37D (11726825_at) / RFU C10orf10 (11716522_x_at) / Fold change /veh C10orf10 (11716522_x_at) / RFU KIR2DL2 /// KIR2DL4 /// KIR2DL5A /// KIR2DL5B /// KIR2DS1 /// KIR2DS2 /// KIR2DS3 /// KIR2DS4 /// KIR3DL3 /// KIR3DL3 /// KIR3DS1 (11738374_at) / Fold change /veh KIR2DL2 /// KIR2DL4 /// KIR2DL5A /// KIR2DL5B /// KIR2DS1 /// KIR2DS2 /// KIR2DS3 /// KIR2DS4 /// KIR3DL3 /// KIR3DL3 /// KIR3DS1 (11738374_at) / RFU C1QL1 (11718748_at) / Fold change /veh C1QL1 (11718748_at) / RFU TMPRSS4 (11747572_a_at) / Fold change /veh TMPRSS4 (11747572_a_at) / RFU HAMP (11756126_x_at) / Fold change /veh HAMP (11756126_x_at) / RFU RNFT2 (11725882_a_at) / Fold change /veh RNFT2 (11725882_a_at) / RFU NR4A2 (11747474_a_at) / Fold change /veh NR4A2 (11747474_a_at) / RFU ABCC12 (11746883_a_at) / Fold change /veh ABCC12 (11746883_a_at) / RFU TMEM136 (11760407_x_at) / Fold change /veh TMEM136 (11760407_x_at) / RFU CLDN22 /// WWC2 (11732394_at) / Fold change /veh CLDN22 /// WWC2 (11732394_at) / RFU HLA-DPB1 (11760878_x_at) / Fold change /veh HLA-DPB1 (11760878_x_at) / RFU SPINT1 (11716480_a_at) / Fold change /veh SPINT1 (11716480_a_at) / RFU GAP43 (11754022_s_at) / Fold change /veh GAP43 (11754022_s_at) / RFU A4GNT (11735810_at) / Fold change /veh A4GNT (11735810_at) / RFU PRB3 (11715151_x_at) / Fold change /veh PRB3 (11715151_x_at) / RFU TUBB4B (11761932_at) / Fold change /veh TUBB4B (11761932_at) / RFU CAPN14 (11732068_a_at) / Fold change /veh CAPN14 (11732068_a_at) / RFU TMCC2 (11721928_a_at) / Fold change /veh TMCC2 (11721928_a_at) / RFU IRGQ (11745062_a_at) / Fold change /veh IRGQ (11745062_a_at) / RFU FAM174B (11720279_a_at) / Fold change /veh FAM174B (11720279_a_at) / RFU TMPRSS4 (11748680_a_at) / Fold change /veh TMPRSS4 (11748680_a_at) / RFU FAM212B (11763350_a_at) / Fold change /veh FAM212B (11763350_a_at) / RFU PLEKHG5 (11743358_a_at) / Fold change /veh PLEKHG5 (11743358_a_at) / RFU ZSCAN30 (11745921_a_at) / Fold change /veh ZSCAN30 (11745921_a_at) / RFU CMKLR1 (11741424_a_at) / Fold change /veh CMKLR1 (11741424_a_at) / RFU LOC101060620 /// MAPK8IP1 (11723275_at) / Fold change /veh LOC101060620 /// MAPK8IP1 (11723275_at) / RFU SPTSSB (11747773_x_at) / Fold change /veh SPTSSB (11747773_x_at) / RFU PRSS12 (11739890_at) / Fold change /veh PRSS12 (11739890_at) / RFU BIN1 (11741810_x_at) / Fold change /veh BIN1 (11741810_x_at) / RFU WNT11 (11732464_a_at) / Fold change /veh WNT11 (11732464_a_at) / RFU C10orf10 (11716521_a_at) / Fold change /veh C10orf10 (11716521_a_at) / RFU C5orf56 (11738089_at) / Fold change /veh C5orf56 (11738089_at) / RFU CYB561 (11721691_x_at) / Fold change /veh CYB561 (11721691_x_at) / RFU ANKRD19P (11752326_a_at) / Fold change /veh ANKRD19P (11752326_a_at) / RFU OR2T12 /// OR2T33 /// OR2T8 (11738714_s_at) / Fold change /veh OR2T12 /// OR2T33 /// OR2T8 (11738714_s_at) / RFU VCAN (11748164_a_at) / Fold change /veh VCAN (11748164_a_at) / RFU JSRP1 (11732532_at) / Fold change /veh JSRP1 (11732532_at) / RFU KRTAP10-11 (11738290_x_at) / Fold change /veh KRTAP10-11 (11738290_x_at) / RFU MYO3A (11730013_a_at) / Fold change /veh MYO3A (11730013_a_at) / RFU EBF3 (11725865_a_at) / Fold change /veh EBF3 (11725865_a_at) / RFU CAMK2N1 (11719241_x_at) / Fold change /veh CAMK2N1 (11719241_x_at) / RFU C5orf56 (11738088_a_at) / Fold change /veh C5orf56 (11738088_a_at) / RFU OLFML3 (11715873_a_at) / Fold change /veh OLFML3 (11715873_a_at) / RFU LOC100653217 /// NTM (11731650_a_at) / Fold change /veh LOC100653217 /// NTM (11731650_a_at) / RFU MAPK11 (11762145_a_at) / Fold change /veh MAPK11 (11762145_a_at) / RFU FIZ1 (11724087_x_at) / Fold change /veh FIZ1 (11724087_x_at) / RFU OASL (11726364_x_at) / Fold change /veh OASL (11726364_x_at) / RFU SOX15 (11748057_x_at) / Fold change /veh SOX15 (11748057_x_at) / RFU CD79A (11719716_a_at) / Fold change /veh CD79A (11719716_a_at) / RFU HIST1H1D (11736915_at) / Fold change /veh HIST1H1D (11736915_at) / RFU CASKIN2 (11723855_a_at) / Fold change /veh CASKIN2 (11723855_a_at) / RFU LOC730098 (11760151_x_at) / Fold change /veh LOC730098 (11760151_x_at) / RFU OR4N2 (11742367_at) / Fold change /veh OR4N2 (11742367_at) / RFU PRRT2 (11749266_a_at) / Fold change /veh PRRT2 (11749266_a_at) / RFU SNX32 (11753110_a_at) / Fold change /veh SNX32 (11753110_a_at) / RFU CDHR5 (11726645_a_at) / Fold change /veh CDHR5 (11726645_a_at) / RFU RCAN1 (11760418_a_at) / Fold change /veh RCAN1 (11760418_a_at) / RFU FAM167A (11723789_a_at) / Fold change /veh FAM167A (11723789_a_at) / RFU FAM26E (11764081_at) / Fold change /veh FAM26E (11764081_at) / RFU ISYNA1 (11749810_s_at) / Fold change /veh ISYNA1 (11749810_s_at) / RFU ACY1 (11761880_at) / Fold change /veh ACY1 (11761880_at) / RFU 11764098_at / Fold change /veh 11764098_at / RFU SAMD14 (11745864_x_at) / Fold change /veh SAMD14 (11745864_x_at) / RFU NPB (11741838_a_at) / Fold change /veh NPB (11741838_a_at) / RFU TMPRSS6 (11731388_a_at) / Fold change /veh TMPRSS6 (11731388_a_at) / RFU KRTAP10-2 (11738614_at) / Fold change /veh KRTAP10-2 (11738614_at) / RFU ARHGAP8 /// PRR5-ARHGAP8 (11727945_x_at) / Fold change /veh ARHGAP8 /// PRR5-ARHGAP8 (11727945_x_at) / RFU KRTAP5-7 /// NADSYN1 (11734609_at) / Fold change /veh KRTAP5-7 /// NADSYN1 (11734609_at) / RFU RASL12 (11751679_a_at) / Fold change /veh RASL12 (11751679_a_at) / RFU CDKN2B (11736163_a_at) / Fold change /veh CDKN2B (11736163_a_at) / RFU PRF1 (11729649_at) / Fold change /veh PRF1 (11729649_at) / RFU, ZNF638 /// ZNF638-IT1 / Fold change vs veh, ZNF638 /// ZNF638-IT1 / RFU, PANK3 / Fold change vs veh, PANK3 / RFU, SH3YL1 / Fold change vs veh, SH3YL1 / RFU, ZEB2 / Fold change vs veh, ZEB2 / RFU, NRIP1 / Fold change vs veh, NRIP1 / RFU, PTTG1IP / Fold change vs veh, PTTG1IP / RFU, CAPN2 / Fold change vs veh, CAPN2 / RFU, MED14 / Fold change vs veh, MED14 / RFU, SNORA58 / Fold change vs veh, SNORA58 / RFU, C1orf63 / Fold change vs veh, C1orf63 / RFU, LRRFIP1 / Fold change vs veh, LRRFIP1 / RFU, NDUFAF7 / Fold change vs veh, NDUFAF7 / RFU, SLC12A2 / Fold change vs veh, SLC12A2 / RFU, IBTK / Fold change vs veh, IBTK / RFU, ESF1 / Fold change vs veh, ESF1 / Fold change vs veh, TMEM50B / RFU, TAOK1 / Fold change vs veh, TAOK1 / RFU, ACBD3 / Fold change vs veh, ACBD3 / RFU, TMA16 / Fold change vs veh, TMA16 / RFU, RWDD3 / Fold change vs veh, RWDD3 / RFU, BCAT1 / Fold change vs veh, BCAT1 / RFU, EDEM3 / Fold change vs veh, EDEM3 / RFU, TMEM33 / Fold change vs veh, TMEM33 / RFU, WDR75 / Fold change vs veh, WDR75 / RFU, AHCTF1 / Fold change vs veh, AHCTF1 / RFU, TFRC / Fold change vs veh, TFRC / RFU, ZDHHC17 / Fold change vs veh, ZDHHC17 / RFU, NOM1 / Fold change vs veh, NOM1 / RFU, ARL8B / Fold change vs veh, ARL8B / RFU, ZBTB11 / Fold change vs veh, ZBTB11 / RFU, TAMM41 / Fold change vs veh, TAMM41 / RFU, KIAA1704 /// LOC100996395 / Fold change vs veh, KIAA1704 /// LOC100996395 / RFU, ING1 / Fold change vs veh, ING1 / RFU, TRMT61B / Fold change vs veh, TRMT61B / RFU, FUBP3 / Fold change vs veh, FUBP3 / RFU, TP53 / Fold change vs veh, TP53 / RFU, TNKS2 / Fold change vs veh, TNKS2 / RFU, ZFP14 / Fold change vs veh, ZFP14 / RFU, ACTR2 / Fold change vs veh, ACTR2 / RFU, PPP3R1 / Fold change vs veh, PPP3R1 / RFU, PIK3R1 / Fold change vs veh, PIK3R1 / RFU, HNRNPA1 / Fold change vs veh, HNRNPA1 / RFU, RNF170 / Fold change vs veh, RNF170 / RFU, ZNF28 / Fold change vs veh, ZNF28 / RFU, RNGTT / Fold change vs veh, RNGTT / RFU, OGT / Fold change vs veh, OGT / RFU, BRD1 / Fold change vs veh, BRD1 / RFU, MARS / Fold change vs veh, MARS / RFU, ZNF655 / Fold change vs veh, ZNF655 / RFU, FAHD1 / Fold change vs veh, FAHD1 / RFU, BDP1 / Fold change vs veh, BDP1 / RFU, LRRCC1 / Fold change vs veh, LRRCC1 / RFU, ARID1A / Fold change vs veh, ARID1A / RFU, ZNF146 / Fold change vs veh, ZNF146 / RFU, ZNF330 / Fold change vs veh, ZNF330 / RFU, GPN3 / Fold change vs veh, GPN3 / RFU, C9orf123 / Fold change vs veh, C9orf123 / RFU, N4BP2L2 / Fold change vs veh, N4BP2L2 / RFU, ARFIP1 / Fold change vs veh, ARFIP1 / RFU, FAM179B / Fold change vs veh, FAM179B / RFU, BCL10 / Fold change vs veh, BCL10 / RFU, UHRF1BP1L / Fold change vs veh, UHRF1BP1L / RFU, BET1 / Fold change vs veh, BET1 / RFU, CNOT2 / Fold change vs veh, CNOT2 / RFU, ZNF268 / Fold change vs veh, ZNF268 / Fold change vs veh, ZNF507 / RFU, DGCR2 / Fold change vs veh, DGCR2 / RFU, WDSUB1 / Fold change vs veh, WDSUB1 / Fold change vs veh, HSP90B1 /// MIR3652 / RFU, ADSS / Fold change vs veh, ADSS / RFU, GK / Fold change vs veh, GK / RFU, ZNF148 / Fold change vs veh, ZNF148 / RFU, TAF9 / Fold change vs veh, TAF9 / RFU, SLC1A5 / Fold change vs veh, SLC1A5 / RFU, SLMO2 / Fold change vs veh, SLMO2 / RFU, ABCC4 / Fold change vs veh, ABCC4 / RFU, LOC101060439 /// RAP1B / Fold change vs veh, LOC101060439 /// RAP1B / RFU, RFX7 / Fold change vs veh, RFX7 / RFU, GTPBP10 / Fold change vs veh, GTPBP10 / RFU, CNEP1R1 / Fold change vs veh, CNEP1R1 / RFU, BIVM-ERCC5 /// ERCC5 / Fold change vs veh, BIVM-ERCC5 /// ERCC5 / RFU, ILF3 / Fold change vs veh, ILF3 / RFU 11762660_at / Fold change /veh 11762660_at / RFU VCAN (11757783_s_at) / Fold change /veh VCAN (11757783_s_at) / RFU DDX43 (11728927_at) / Fold change /veh DDX43 (11728927_at) / RFU KRT8 (11758188_x_at) / Fold change /veh KRT8 (11758188_x_at) / RFU NKD1 (11759106_at) / Fold change /veh NKD1 (11759106_at) / RFU SRD5A1 (11742802_a_at) / Fold change /veh SRD5A1 (11742802_a_at) / RFU TPSAB1 /// TPSB2 (11721975_s_at) / Fold change /veh TPSAB1 /// TPSB2 (11721975_s_at) / RFU GSTM3 (11746129_a_at) / Fold change /veh GSTM3 (11746129_a_at) / RFU IL23R (11737362_x_at) / Fold change /veh IL23R (11737362_x_at) / RFU TMEM51 (11727254_a_at) / Fold change /veh TMEM51 (11727254_a_at) / RFU PIWIL2 (11732686_x_at) / Fold change /veh PIWIL2 (11732686_x_at) / RFU ORM1 (11744905_x_at) / Fold change /veh ORM1 (11744905_x_at) / RFU CCDC152 (11743942_at) / Fold change /veh CCDC152 (11743942_at) / RFU ECM1 (11717891_a_at) / Fold change /veh ECM1 (11717891_a_at) / RFU IL23R (11748794_a_at) / Fold change /veh IL23R (11748794_a_at) / RFU TNFAIP8L3 (11732012_x_at) / Fold change /veh TNFAIP8L3 (11732012_x_at) / RFU MBOAT4 (11741988_at) / Fold change /veh MBOAT4 (11741988_at) / RFU 11764193_at / Fold change /veh 11764193_at / RFU TMEM53 (11763286_at) / Fold change /veh TMEM53 (11763286_at) / RFU MAGEB2 (11727129_at) / Fold change /veh MAGEB2 (11727129_at) / RFU TMEM200A (11744735_a_at) / Fold change /veh TMEM200A (11744735_a_at) / RFU CCDC152 (11751479_a_at) / Fold change /veh CCDC152 (11751479_a_at) / RFU FAM211A (11726209_a_at) / Fold change /veh FAM211A (11726209_a_at) / RFU RGS16 (11746705_a_at) / Fold change /veh RGS16 (11746705_a_at) / RFU VCAN (11755009_s_at) / Fold change /veh VCAN (11755009_s_at) / RFU RHOB (11743442_s_at) / Fold change /veh RHOB (11743442_s_at) / RFU RGS16 (11720943_a_at) / Fold change /veh RGS16 (11720943_a_at) / RFU RGS16 (11720944_at) / Fold change /veh RGS16 (11720944_at) / RFU, VPS4B / Fold change vs veh, VPS4B / RFU, CREB1 / Fold change vs veh, CREB1 / RFU, DNAJC13 / Fold change vs veh, DNAJC13 / RFU, GNAQ / Fold change vs veh, GNAQ / RFU, CDK5R1 / Fold change vs veh, CDK5R1 / RFU, ZRANB3 / Fold change vs veh, ZRANB3 / RFU, CUL4A / Fold change vs veh, CUL4A / RFU, CCNY / Fold change vs veh, CCNY / RFU, UFL1 / Fold change vs veh, UFL1 / RFU, COG3 / Fold change vs veh, COG3 / RFU, DIAPH2 / Fold change vs veh, DIAPH2 / RFU, SKA2 / Fold change vs veh, SKA2 / RFU, AFF3 / Fold change vs veh, AFF3 / RFU, LMF1 / Fold change vs veh, LMF1 / RFU, IPO11 / Fold change vs veh, IPO11 / RFU, DFFB / Fold change vs veh, DFFB / RFU, FOXP1 / Fold change vs veh, FOXP1 / RFU, CARD8 / Fold change vs veh, CARD8 / RFU, STRN3 / Fold change vs veh, STRN3 / RFU, ADK / Fold change vs veh, ADK / RFU, RASSF2 / Fold change vs veh, RASSF2 / RFU, WIPF1 / Fold change vs veh, WIPF1 / RFU, LARP1B / Fold change vs veh, LARP1B / RFU, RASA1 / Fold change vs veh, RASA1 / RFU, RB1 / Fold change vs veh, RB1 / RFU, PPFIA1 / Fold change vs veh, PPFIA1 / RFU, MAT2A / Fold change vs veh, MAT2A / RFU, CCT5 / Fold change vs veh, CCT5 / RFU, WDR92 / Fold change vs veh, WDR92 / RFU, CUX1 / Fold change vs veh, CUX1 / RFU, TTC7A / Fold change vs veh, TTC7A / RFU, TMEM135 / Fold change vs veh, TMEM135 / RFU, DEPTOR / Fold change vs veh, DEPTOR / RFU, CPM / Fold change vs veh, CPM / RFU, DNAJB6 / Fold change vs veh, DNAJB6 / RFU, CACNA2D3 / Fold change vs veh, CACNA2D3 / RFU, DTX4 / Fold change vs veh, DTX4 / RFU, TFCP2 / Fold change vs veh, TFCP2 / RFU, GMCL1 /// GMCL1P1 / Fold change vs veh, GMCL1 /// GMCL1P1 / RFU, AEBP2 / Fold change vs veh, AEBP2 / RFU, SNHG1 /// SNORD22 /// SNORD25 /// SNORD26 /// SNORD27 /// SNORD28 /// SNORD29 /// SNORD31 / Fold change vs veh, SNHG1 /// SNORD22 /// SNORD25 /// SNORD26 /// SNORD27 /// SNORD28 /// SNORD29 /// SNORD31 / Fold change (Aza/veh), C12orf56 (ProbeSet 11735607_a_at) / Fold change (ACY-1035/veh), C12orf56 (ProbeSet 11735607_a_at) / Fold change (Aza/veh), FGFR1OP (ProbeSet 11751329_s_at) / Fold change (ACY-1035/veh), FGFR1OP (ProbeSet 11751329_s_at) / Fold change (Aza/veh), VPS36 (ProbeSet 11739960_a_at) / Fold change (ACY-1035/veh), VPS36 (ProbeSet 11739960_a_at) / RFU SYPL1 (11715823_x_at) / Fold change /veh SYPL1 (11715823_x_at) / RFU IGFBP7 (11715501_s_at) / Fold change /veh IGFBP7 (11715501_s_at) / RFU REEP3 (11722064_at) / Fold change /veh REEP3 (11722064_at) / RFU IGLL1 (11728026_x_at) / Fold change /veh IGLL1 (11728026_x_at): dose or concentration left out as unconfirmed
Settings: MV-4-11 cells, 48 hours

Nc1ccc(-c2cccs2)cc1NC(=O)c1ccc2c(c1)cc(C1CC1)n2CCN1CCOCC1 [ACY-1035]
Fold change /veh GSTM3 (11746129_a_at): 0.96
